Experimental data: ChEMBL document CHEMBL1201862, “PubChem BioAssay data set” (2004)
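48-hour exposure; five concentrations; linearly interpolated endpoints. GI50 marks 50% less growth.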 Activity calls are given as the source filed them. No stated cut-off is given here; in the data, active = GI50 up to about 1.1 µM and inactive = higher.

What was measured:
Experiment in all cases: NCI-60 cell line screen, 48 h
[1] = tested on: M19-MEL
[2] = tested on: COLO 205
[3] = tested on: LOX IMVI
[4] = tested on: A498
[5] = tested on: XF498
[6] = tested on: HOP-62
[7] = tested on: TK-10
[8] = tested on: KM-20L2
[9] = tested on: DMS-114
[10] = tested on: UACC-257
[11] = tested on: LXFL 529
[12] = tested on: ACHN
[13] = tested on: UACC-62
[14] = tested on: SK-MEL-2
[15] = tested on: SF-295
[16] = tested on: RPMI-8226
[17] = tested on: SR
[18] = tested on: SNB-75
[19] = tested on: SNB-78
[20] = tested on: HCT-15
[21] = tested on: DMS-273
[22] = tested on: SK-MEL-5
[23] = tested on: M14
[24] = tested on: OVCAR-8
[25] = tested on: NCI-H226
[26] = tested on: CCRF-CEM
[27] = tested on: HT-29
[28] = tested on: DLD-1
[29] = tested on: MOLT-4
[30] = tested on: IGROV-1
[31] = tested on: U-251
[32] = tested on: UO-31
[33] = tested on: RXF 393
[34] = tested on: HCT-116
[35] = tested on: CAKI-1
[36] = tested on: K562
[37] = tested on: SK-MEL-28
[38] = tested on: OVCAR-5
[39] = tested on: SF-539
[40] = tested on: HOP-18
[41] = tested on: SN12C
[42] = tested on: HCC 2998
[43] = tested on: NCI-H460
[44] = tested on: OVCAR-4
[45] = tested on: OVCAR-3
[46] = tested on: 786-0
[47] = tested on: NCI-H23
[48] = tested on: EKVX
[49] = tested on: KM12
[50] = tested on: SF-268
[51] = tested on: A549
[52] = tested on: HL-60
[53] = tested on: SW-620
[54] = tested on: Malme-3M
[55] = tested on: HOP-92
[56] = tested on: NCI-H522
[57] = tested on: SK-OV-3
[58] = tested on: SNB-19

COc1ccc(-c2cc(C(=O)Nc3cc(C(F)(F)F)cc(C(F)(F)F)c3)c3ccccc3n2)cc1
GI50 [1]: 17.2 µM (inactive) | GI50 [2]: 13.4 µM (inactive) | GI50 [3]: 13.4 µM (inactive) | GI50 [4]: 15.1 µM (inactive) | GI50 [5]: 7.31 µM (inactive) | GI50 [6]: 12.8 µM (inactive) | GI50 [7]: 13.9 µM (inactive) | GI50 [8]: 7.08 µM (inactive) | GI50 [9]: 6.56 µM (inactive) | GI50 [10]: 17.6 µM (inactive) | GI50 [11]: 8.83 µM (inactive) | GI50 [12]: 12.5 µM (inactive) | GI50 [13]: 21.6 µM (inactive) | GI50 [14]: 12.9 µM (inactive) | GI50 [15]: 10.3 µM (inactive) | GI50 [16]: 6.27 µM (inactive) | GI50 [17]: 4.29 µM (inactive) | GI50 [18]: 13.7 µM (inactive) | GI50 [19]: 19.5 µM (inactive) | GI50 [20]: 11.4 µM | GI50 [21]: 8.36 µM (inactive) | GI50 [22]: 18 µM (inactive) | GI50 [23]: 10.2 µM (inactive) | GI50 [24]: 4.27 µM (inactive) | GI50 [25]: 17.1 µM (inactive) | GI50 [26]: 7.6 µM (inactive) | GI50 [27]: 9.06 µM (inactive) | GI50 [28]: 11.4 µM (inactive) | GI50 [29]: 14.2 µM (inactive) | GI50 [30]: 12.6 µM (inactive) | GI50 [31]: 4.28 µM (inactive) | GI50 [32]: 24.5 µM (inactive) | GI50 [33]: 5.12 µM (inactive) | GI50 [34]: 6.19 µM (inactive) | GI50 [35]: 11.3 µM (inactive) | GI50 [36]: 4.89 µM (inactive) | GI50 [37]: 27.7 µM (inactive) | GI50 [38]: 24.7 µM (inactive) | GI50 [39]: 12.3 µM (inactive) | GI50 [40]: 17.7 µM (inactive) | GI50 [41]: 10.6 µM (inactive) | GI50 [42]: 11.4 µM (inactive) | GI50 [43]: 5.42 µM (inactive) | GI50 [44]: 8.3 µM (inactive) | GI50 [45]: 4.93 µM (inactive) | GI50 [46]: 11.7 µM (inactive) | GI50 [47]: 5.9 µM (inactive) | GI50 [48]: 9.06 µM (inactive) | GI50 [49]: 13.2 µM (inactive) | GI50 [50]: 14.4 µM (inactive) | GI50 [51]: 4.71 µM (inactive) | GI50 [52]: 21.3 µM (inactive) | GI50 [53]: 7.94 µM (inactive) | GI50 [54]: 17.9 µM (inactive)

C(/COc1cccnc1)=N\NC1=NCCN1
GI50 [1]: > 100 µM (inactive) | GI50 [2]: > 100 µM (inactive) | GI50 [55]: > 100 µM (inactive) | GI50 [3]: > 100 µM (inactive) | GI50 [4]: > 100 µM (inactive) | GI50 [5]: > 100 µM (inactive) | GI50 [6]: > 100 µM (inactive) | GI50 [7]: > 100 µM (inactive) | GI50 [8]: > 100 µM (inactive) | GI50 [9]: > 100 µM (inactive) | GI50 [10]: > 100 µM (inactive) | GI50 [11]: > 100 µM (inactive) | GI50 [12]: > 100 µM (inactive) | GI50 [13]: > 100 µM (inactive) | GI50 [14]: > 100 µM (inactive) | GI50 [15]: > 100 µM (inactive) | GI50 [16]: > 100 µM (inactive) | GI50 [17]: > 100 µM (inactive) | GI50 [18]: > 100 µM (inactive) | GI50 [56]: > 100 µM (inactive) | GI50 [19]: > 100 µM (inactive) | GI50 [20]: > 100 µM | GI50 [21]: > 100 µM (inactive) | GI50 [22]: > 100 µM (inactive) | GI50 [23]: > 100 µM (inactive) | GI50 [24]: > 100 µM (inactive) | GI50 [25]: > 100 µM (inactive) | GI50 [26]: > 100 µM (inactive) | GI50 [27]: > 100 µM (inactive) | GI50 [28]: > 100 µM (inactive) | GI50 [29]: > 100 µM (inactive) | GI50 [30]: > 100 µM (inactive) | GI50 [31]: > 100 µM (inactive) | GI50 [32]: > 100 µM (inactive) | GI50 [33]: > 100 µM (inactive) | GI50 [34]: > 100 µM (inactive) | GI50 [35]: > 100 µM (inactive) | GI50 [36]: > 100 µM (inactive) | GI50 [37]: > 100 µM (inactive) | GI50 [38]: > 100 µM (inactive) | GI50 [39]: > 100 µM (inactive) | GI50 [57]: > 100 µM (inactive) | GI50 [40]: > 100 µM (inactive) | GI50 [41]: > 100 µM (inactive) | GI50 [42]: > 100 µM (inactive) | GI50 [43]: > 100 µM (inactive) | GI50 [44]: > 100 µM (inactive) | GI50 [45]: > 100 µM (inactive) | GI50 [46]: > 100 µM (inactive) | GI50 [47]: > 100 µM (inactive) | GI50 [48]: > 100 µM (inactive) | GI50 [49]: > 100 µM (inactive) | GI50 [50]: > 100 µM (inactive) | GI50 [58]: > 100 µM (inactive) | GI50 [51]: > 100 µM (inactive) | GI50 [52]: > 100 µM (inactive) | GI50 [53]: > 100 µM (inactive) | GI50 [54]: > 100 µM (inactive)

CC(=O)OC1CCn2nnc(CO)c21 (configuration not stated)
GI50 [1]: > 100 µM (inactive) | GI50 [2]: > 100 µM (inactive) | GI50 [55]: > 100 µM (inactive) | GI50 [5]: > 100 µM (inactive) | GI50 [7]: > 100 µM (inactive) | GI50 [8]: > 100 µM (inactive) | GI50 [9]: > 100 µM (inactive) | GI50 [10]: > 100 µM (inactive) | GI50 [11]: > 100 µM (inactive) | GI50 [13]: > 100 µM (inactive) | GI50 [14]: > 100 µM (inactive) | GI50 [15]: > 100 µM (inactive) | GI50 [16]: > 100 µM (inactive) | GI50 [17]: > 100 µM (inactive) | GI50 [18]: 23.8 µM (inactive) | GI50 [56]: > 100 µM (inactive) | GI50 [19]: > 100 µM (inactive) | GI50 [20]: > 100 µM | GI50 [21]: > 100 µM (inactive) | GI50 [22]: > 100 µM (inactive) | GI50 [24]: > 100 µM (inactive) | GI50 [25]: > 100 µM (inactive) | GI50 [27]: > 100 µM (inactive) | GI50 [28]: > 100 µM (inactive) | GI50 [29]: > 100 µM (inactive) | GI50 [30]: > 100 µM (inactive) | GI50 [31]: > 100 µM (inactive) | GI50 [32]: > 100 µM (inactive) | GI50 [33]: > 100 µM (inactive) | GI50 [34]: > 100 µM (inactive) | GI50 [35]: > 100 µM (inactive) | GI50 [36]: > 100 µM (inactive) | GI50 [37]: > 100 µM (inactive) | GI50 [38]: > 100 µM (inactive) | GI50 [39]: 58.5 µM (inactive) | GI50 [57]: > 100 µM (inactive) | GI50 [40]: > 100 µM (inactive) | GI50 [41]: > 100 µM (inactive) | GI50 [42]: > 100 µM (inactive) | GI50 [43]: > 100 µM (inactive) | GI50 [44]: > 100 µM (inactive) | GI50 [45]: > 100 µM (inactive) | GI50 [46]: > 100 µM (inactive) | GI50 [47]: > 100 µM (inactive) | GI50 [48]: > 100 µM (inactive) | GI50 [49]: > 100 µM (inactive) | GI50 [58]: > 100 µM (inactive) | GI50 [51]: > 100 µM (inactive) | GI50 [53]: > 100 µM (inactive) | GI50 [54]: > 100 µM (inactive)
